Laboratory results as given in patent US20260355239A1, “COMBINATION OF A T CELL THERAPY AND CONTINUOUS OR INTERMITTENT DGK INHIBITOR DOSING” (Juno Therapeutics, Inc., priority 2022, published 2026).

What was measured:
[1] = tested on: CD19-antigen expressing target cells (K562.CD19, Granta-519, Raji); assay: CAR-T cell cytolytic function in co-culture; type: cell-based, human; settings: 2.5:1 effector:target, compound present during co-culture
Description: (§1) T cell compositions containing T cells expressing an exemplary anti-CD19 CAR were generated from leukapheresis samples from two healthy human adult donors by a process that included immunoaffinity-based selection of T cells by separately selecting CD4+ and CD8+ cells from the samples, resulting in two compositions enriched for CD4+ and CD8+ cells, respectively, per donor. Cells of the enriched CD4+ and CD8+ compositions were separately activated with anti-CD3/anti-CD28 beads and subjected to lentiviral transduction with a vector encoding an anti-CD19 CAR. […]
(§2) Prior to use, the cryopreserved CD4+ and CD8+ CAR-engineered cell compositions were thawed and combined at approximately a 1:1 CD4:CD8 ratio for each donor to prepare a combined CD4+ CAR+ and CD8+ CAR+ T cell composition. The effects of treatment with Compound 17 at various concentrations (0.1 nM, 1 nM, 10 nM, 100 nM, or 1000 nM) added at day 0 during stimulation of the combined CAR-T cell composition with a plate-bound CAR-specific anti-idiotypic antibody (see, e.g., WO2018/023100) or during co-culture with CD19-expressing cells was then assessed.
The cytolytic function of T cells treated with Compound 17 was assessed following co-culture of the combined CAR-T cell composition with various CD19-expressing lymphoma cells at a 2.5:1 effector:target ratio in the presence of Compound 17. […]

[2] = tested on: anti-CD19 CAR-T cells with K562.CD19, Granta-519 and Raji cells; assay: Rescue treatment: cytokine production of chronically stimulated CAR-T cells, 2D co-culture; type: cell-based, human; settings: 48 h
eTCR T cells = assay: Rescue treatment: proliferation of chronically stimulated eTCR T cells on re-stimulation; type: cell-based, human; settings: 100 nM, 7 day re-stimulation with 20 μg/mL anti-Vbeta
Description: Primary human CD4+ and CD8+ T cells were isolated from healthy donors by immunoaffinity-based methods. The isolated CD4+ and CD8+ T cells were combined and stimulated with an anti-CD3/anti-CD28 reagent, and then were transduced with a lentiviral vector encoding an anti-human papillomavirus 16 (anti-HPV16) eTCR. The nucleotide sequences encoding the beta chain and the alpha chain of the eTCR were separated by a sequence encoding a 2A ribosome skip element. Following transduction, the cells were cultured in media containing human serum and cytokines for 9-10 days prior to further assessment.
In another experiment to assess activity of the DGKi to rescue or reverse exhaustion, eTCR T cells were chronically stimulated for 6 days as described above in the absence of Compound 17. Then, chronically stimulated eTCR T cells or freshly thawed eTCR T cells that had not been chronically stimulated were re-stimulated with 20 μg/mL plate-bound antibody against the Vbeta chain of the eTCR in the presence of 100 nM Compound 17 for 7 days. As a control, chronically stimulated eTCR T cells were re-stimulated in the absence of Compound 17 for 7 days. At the end of the 7 day re-stimulation, cell counts were determined.

[3] = tested on: CD19-expressing lymphoma cells (K562.CD19, Granta-519, Raji); assay: Cytolytic activity of chronically stimulated, concurrently treated CAR-T cells, 2D co-culture; type: cell-based, human; settings: concurrent treatment during chronic stimulation; 2D re-challenge without compound
Description: To simulate conditions of chronic stimulation, approximately 20,000 anti-CD19 CAR-expressing T cells of a combined CAR-T cell composition produced as described in Example 2 from two healthy adult donors were incubated with 30 µg/mL of plate-bound CAR-specific anti-idiotypic antibody (see, e.g., WO2018/023100) at 37 °C for a period of seven days. During this seven-day period, engineered CAR T cells were concurrently treated with Compound 17(0.1-1000 nM) or a vehicle control added at day 0.
Stimulated CAR T cells were then re-challenged with CD19-expressing tumor cells or tumor spheroids in the absence of Compound 17, and cytolytic activity and cytokine production were assessed.
To assess cytolytic function, the stimulated CAR-T cell composition was co-cultured with various CD19-expressing lymphoma cells at a 2.5:1 effector:target ratio. The tumor cells were engineered to express NucLight Red (NLR) and tumor cell number was monitored by Incucyte®. […] Duplicate values for cell compositions manufactured from the two different healthy donors are shown.

Nalm6-rFluc cells = assay: Tumor cell re-challenge after CAR T cell combination, Nalm6-rFluc (Example 11); type: in vivo, NSG mice
Description: Mice in Example 10 who received the CAR T cell combination with continuous Compound 17 dosing regimen were re-challenged by intravenous injection of 5×10^6 Nalm6-rFluc cells on Day 71. For comparison, 5×10^6 Nalm6-rFluc cells were intravenously injected into naive mice that had not previously been injected with or administered Nalm6-rFluc cells, CAR T cells, or Compound 17 (n=4 per group). […] Tumor burden was assessed for 10 days following re-challenge. Survival of treated mice was assessed until 30 days post re-challenge.

Raji cells = assay: Rescue treatment: cytolytic activity of chronically stimulated CAR-T cells, 2D, Raji; type: cell-based, human; settings: higher concentrations, 2D co-culture
Description: Anti-CD19 CAR-expressing T cells, produced as described in Example 2, were chronically stimulated with plate-bound CAR-specific anti-idiotypic antibody for seven days as described in Example 3, but in the absence of Compound 17 during chronic stimulation. Instead, chronically stimulated CAR T cells were treated with Compound 17 during re-challenge with CD19-expressing tumor cells, after which cytolytic activity and cytokine production were assessed.
The chronically stimulated CAR-T cells were incubated with various CD19-expressing lymphoma cells at a 2.5:1 effector:target ratio in the presence of DGKi (0-1000 nM). The tumor cells were labeled with NucLight Red (NLR) and tumor cell number was monitored by Incucyte®.

anti-CD19 CAR-T cells = assay: CAR-T cell viability; type: cell-based, human; settings: acute stimulation assays
Description: as §1, §2

K562.CD19 cells = assay: Rescue treatment: cytolytic activity of chronically stimulated CAR-T cells, 2D, K562.CD19; type: cell-based, human; settings: higher concentrations, 2D co-culture

Question: How did the “cytolytic function (specific lysis)” value [1] turn out when CC[C@H]1CN([C@@H](CC)c2ccc(C(F)(F)F)cc2)[C@H](CC)CN1c1nc(=O)n(C)c2ccc(C#N)nc12 [Compound 17, 4-((2S,5R)-2,5-diethyl-4-((S)-1-(4-(trifluoromethyl)phenyl)propyl)piperazin-1-yl)-1-methyl-2-oxo-1,2-dihydropyrido[3,2-d]pyrimidine-6-carbonitrile] was run?
Answer: The value was “did not affect cytolytic function”.

Question: What about the “production of IFNγ, IL-2 and TNFα” value [2] of the same compound?
Answer: The value was “dose-dependent increase in production of all three cytokines”.

Question: And the “proliferation of chronically stimulated eTCR T cells (cell counts)” value (eTCR T cells)?
Answer: Its value is “increased proliferation of the eTCR T cells”.

Question: What about the “CAR-T cell cytolytic activity against CD19-expressing lymphoma cells” value [3] of the same compound?
Answer: Its value is “decreased CAR-T cell cytolytic activity against the CD19-expressing lymphoma cells in a dose-dependent manner”.

Question: And the survival after re-challenge (Nalm6-rFluc cells; re-challenge Day 71 after CAR T + Compound 17, until 30 days post re-challenge)?
Answer: Its survival after re-challenge is “survival benefit”.

Question: What about the “tumor growth after re-challenge” value (Nalm6-rFluc cells; re-challenge Day 71 after CAR T + Compound 17, vs naive mice) of the same compound?
Answer: The value was “delayed tumor growth”.

Question: And the “cytolytic activity of CAR T cells against Raji cells” value (Raji cells)?
Answer: The value was “not Raji cells”.

Question: And the T cell viability (anti-CD19 CAR-T cells)?
Answer: The T cell viability was “no impact of Compound 17 on T cell viability was observed”.

Question: What about the “cytolytic activity of CAR T cells against K562.CD19 cells” value (K562.CD19 cells) of the same compound?
Answer: Its value is “improved the cytolytic activity of CAR T cells against K562.CD19 and Granta-519 cells”.
